What was measured:
[1] = test system: transplanted paddy seedlings; experiment: Paddy safety, treatment on stem and leaves of transplanted paddy seedlings; format: in vivo; conditions: 150 g ai/ha, spray on stem and leaves of transplanted paddy seedlings at 4-5-leaves stage
Procedure: The 5-grade evaluation criteria by visual examination for weeding activity and crop safety (i.e. phytotoxicity) are listed in Table 2.
In pots (diameter of 12 cm) containing test soil, paddy seedlings of the given stage are transplanted and grown in the greenhouse at 20-30° C. After growing to 4-5-leaves stage, the spraying treatment on the stem and leaves of paddy seedlings is conducted in a dosage of 150 g ai/ha after diluting the formulation obtained according to Formulating Example 5 into a given concentration. The visual injury and growth state of the individual plants are observed in regular intervals. The evaluation for the crop safety of the compounds is conducted by 5-grade visual observation.

| melting point [°C] | SMILES | Effect on tillering [1] | Stunting [1] |
| --- | --- | --- | --- |
| 96 to 97 | CCCNC(=O)c1ccc(NCc2ccccc2Oc2nc(OC)cc(OC)n2)cc1 [Compound I-78, n-propyl 4-[2-(4,6-dimethoxy-2-pyrimidinyloxy)-benzylamino]-benzamide] |  |  |
| 83 to 84 | COc1cc(OC)nc(Oc2ccccc2CNc2ccc(C(=O)NC(C)C)cc2)n1 [Compound I-79, i-propyl 4-[2-(4,6-dimethoxy-2-pyrimidinyloxy)-benzylamino]benzamide] |  |  |
|  | COc1cc(OC)nc(Oc2ccccc2CNc2ccc(NC(=O)C(C)C)cc2)n1 [Compound I-101] | None | <10% |
|  | COc1cc(OC)nc(Oc2ccccc2CNc2ccc(NC(=O)c3ccccc3)cc2)n1 [Compound I-102] | None | 10-15% |
|  | COc1cc(OC)nc(Oc2ccccc2CNc2ccc(NC(=O)C(F)(F)F)cc2)n1 [Compound I-103] | None | 20-25% |

From patent publication US6800590B2, “2-Pyrimidinyloxy-n-aryl-benzylamine derivatives,their processes and uses” (Shanghai Institute of Organic Chemistry, priority 2003, dated 2004)
